Reference: patent EP0268178A1, “Pyrrolo-benzimidazoles, medicaments containing these compounds and process for their preparation” (Dr. Karl Thomae GmbH, priority 1986, dated 1988)

Test system: narkotisierten Katze
Assay: Blood-pressure-lowering and positive inotropic effect in the anaesthetised cat
Type: in vivo, Katzen
Details: mean of 2 cats; for diastol. Blutdruckänderung in mmHg: anaesthetised cats (Pentobarbital-Natrium), 0,3 mg/kg i.v., Aorta abdominalis; for Zunahme von dp/dt in %: dp/dt max from left ventricular pressure
Method: 1. Bestimmung der blutdrucksenkenden und ositiv inotropen Wirkung an der narkotisierten Katze:
Die Untersuchungen wurden an Katzen durchgeführt, die mit Pentobarbital-Natrium (40 mg/kg i.p. + 8 mg/kg/Stunde) narkotisiert waren. Die Tiere atmeten spontan. Der arterielle Blutdruck wurde in der Aorta abdominalis mit einem StathamDruckwandler (P 23 Dc) gemessen. Für die Erfassung der positiv inotropen Wirkung wurde mit einem Kathetertipmanometer (Millar PC-350 A) der Druck in der linken Herzkammer gemessen. Daraus wurde der Kontraktilitätsparameter dp/dt max mittels eines Analogdifferenzierers gewonnen. Die zu untersuchende Substanz wurde in eine Vena femoralis injiziert. Als Lösungsmittel diente Polydiol 200. Die Substanz wurde an 2 Katzen geprüft, Dosis 0,3 mg/kg i.v..

[1] = anaesthetised cats, 0,3 mg/kg i.v.

SMILES	diastol. Blutdruckänderung in mmHg [mmHg]	Wirkungsdauer (Halbwertszeit) [1] [Minuten]	Zunahme von dp/dt in % [1]	Zunahme der Herzfrequenz [1]
CCN1C(=O)C(C)(C)c2cc3[nH]c(-c4ccncc4)nc3cc21 [A, 5-Äthyl-7,7-dimethyl-2-(4-pyridyl)-6,7-dihyro-3H,5H-pyrrolo[2,3-f]benzimidazol-6-on]	-33	>80	+55%	–
CCN1C(=O)C(C)(C)c2cc3[nH]c(-c4ccc(S(C)(=O)=O)cc4)nc3cc21 [C, 5-Äthyl-7,7-dimethyl-2-(4-methylsulfonyl-phenyl)-6,7-dihydro-3H,5H-pyrrolo[2,3-f]benzimidazol-6-on]	-16	>60	+91%	+12%
CCN1C(=O)C(C)(C)c2cc3[nH]c(-c4ocnc4C)nc3cc21 [D, 5-Äthyl-7,7-dimethyl-2-(4-methyl-oxazol-5-yl)-6,7-dihydro-3H,5H-pyrrolo[2,3-f]benzimidazol-B-on]	-31	7	+50%	–
CCN1C(=O)C(C)(C)c2cc3[nH]c(-c4ccco4)nc3cc21 [B, 5-Äthyl-7,7-dimethyl-2-(2-furyl)-6,7-dihydro-3H,5H-pyrrolo[2,3-f]benzimidazol-6-on]	-31	26	+49%	–
